Measured values taken from PubChem BioAssay (NCI).
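Compound exposure: 48 hours, 5 concentrations, 96-well plates. TGI marks complete inhibition of growth.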

Tests used:
Assay in all cases: NCI tumour cell line growth inhibition, 48 h
NCI-H23 lung = test system: NCI-H23 lung
M14 melanoma = test system: M14 melanoma
CCRF-CEM leukemia = test system: CCRF-CEM leukemia
RXF 393 renal = test system: RXF 393 renal
SN12C renal = test system: SN12C renal
IGROV1 ovarian = test system: IGROV1 ovarian
PC-3 prostate = test system: PC-3 prostate
MCF7 breast = test system: MCF7 breast
SK-MEL-5 melanoma = test system: SK-MEL-5 melanoma
HCC-2998 colon = test system: HCC-2998 colon
UACC-257 melanoma = test system: UACC-257 melanoma
HOP-92 NSCLC = test system: HOP-92 NSCLC
HOP-62 NSCLC = test system: HOP-62 NSCLC
UO-31 renal = test system: UO-31 renal
SF-295 CNS = test system: SF-295 CNS
ACHN renal = test system: ACHN renal
SK-OV-3 ovarian = test system: SK-OV-3 ovarian
SK-MEL-2 melanoma = test system: SK-MEL-2 melanoma
SNB-75 CNS = test system: SNB-75 CNS
SF-268 CNS = test system: SF-268 CNS
MALME-3M melanoma = test system: MALME-3M melanoma
DU-145 prostate = test system: DU-145 prostate
CAKI-1 renal = test system: CAKI-1 renal
EKVX NSCLC = test system: EKVX NSCLC
MDA-N = test system: MDA-N
MDA-MB-231 breast = test system: MDA-MB-231 breast
NCI-H226 lung = test system: NCI-H226 lung
SK-MEL-28 melanoma = test system: SK-MEL-28 melanoma
SW-620 colon = test system: SW-620 colon
HS 578T breast = test system: HS 578T breast
NCI/ADR-RES ovarian = test system: NCI/ADR-RES ovarian
786-0 renal = test system: 786-0 renal
A498 renal = test system: A498 renal
U251 CNS = test system: U251 CNS
MOLT-4 leukemia = test system: MOLT-4 leukemia
HCT-15 colon = test system: HCT-15 colon
K-562 leukemia = test system: K-562 leukemia
SNB-19 CNS = test system: SNB-19 CNS
SR leukemia = test system: SR leukemia
A549 NSCLC = test system: A549 NSCLC
T-47D breast = test system: T-47D breast
LOX IMVI melanoma = test system: LOX IMVI melanoma
NCI-H522 lung = test system: NCI-H522 lung
OVCAR-5 ovarian = test system: OVCAR-5 ovarian
RPMI-8226 leukemia = test system: RPMI-8226 leukemia
UACC-62 melanoma = test system: UACC-62 melanoma
HL-60(TB) leukemia = test system: HL-60(TB) leukemia
HT29 colon = test system: HT29 colon
KM12 colon = test system: KM12 colon
HCT-116 colon = test system: HCT-116 colon
OVCAR-8 ovarian = test system: OVCAR-8 ovarian
MDA-MB-435 = test system: MDA-MB-435
COLO 205 colon = test system: COLO 205 colon
NCI-H460 lung = test system: NCI-H460 lung
TK-10 renal = test system: TK-10 renal
OVCAR-4 ovarian = test system: OVCAR-4 ovarian
SF-539 CNS = test system: SF-539 CNS
OVCAR-3 ovarian = test system: OVCAR-3 ovarian

Structure (SMILES): CNC(=O)c1n[nH][nH]c1=O
- TGI (NCI-H23 lung): > 100 µM
- TGI (M14 melanoma): > 100 µM
- TGI (CCRF-CEM leukemia): > 100 µM
- TGI (RXF 393 renal): > 100 µM
- TGI (SN12C renal): > 100 µM
- TGI (IGROV1 ovarian): > 100 µM
- TGI (PC-3 prostate): > 100 µM
- TGI (MCF7 breast): > 100 µM
- TGI (SK-MEL-5 melanoma): > 100 µM
- TGI (HCC-2998 colon): > 100 µM
- TGI (UACC-257 melanoma): > 100 µM
- TGI (HOP-92 NSCLC): > 100 µM
- TGI (HOP-62 NSCLC): > 100 µM
- TGI (UO-31 renal): > 100 µM
- TGI (SF-295 CNS): > 100 µM
- TGI (ACHN renal): > 100 µM
- TGI (SK-OV-3 ovarian): > 100 µM
- TGI (SK-MEL-2 melanoma): > 100 µM
- TGI (SNB-75 CNS): > 100 µM
- TGI (SF-268 CNS): > 100 µM
- TGI (MALME-3M melanoma): > 100 µM
- TGI (DU-145 prostate): > 100 µM
- TGI (CAKI-1 renal): > 100 µM
- TGI (EKVX NSCLC): > 100 µM
- TGI (MDA-N): > 100 µM
- TGI (MDA-MB-231 breast): > 100 µM
- TGI (NCI-H226 lung): > 100 µM
- TGI (SK-MEL-28 melanoma): > 100 µM
- TGI (SW-620 colon): > 100 µM
- TGI (HS 578T breast): > 100 µM
- TGI (NCI/ADR-RES ovarian): > 100 µM
- TGI (786-0 renal): > 100 µM
- TGI (A498 renal): > 100 µM
- TGI (U251 CNS): > 100 µM
- TGI (MOLT-4 leukemia): > 100 µM
- TGI (HCT-15 colon): > 100 µM
- TGI (K-562 leukemia): > 100 µM
- TGI (SNB-19 CNS): > 100 µM
- TGI (SR leukemia): > 100 µM
- TGI (A549 NSCLC): > 100 µM
- TGI (T-47D breast): > 100 µM
- TGI (LOX IMVI melanoma): > 100 µM
- TGI (NCI-H522 lung): > 100 µM
- TGI (OVCAR-5 ovarian): > 100 µM
- TGI (RPMI-8226 leukemia): > 100 µM
- TGI (UACC-62 melanoma): > 100 µM
- TGI (HL-60(TB) leukemia): > 100 µM
- TGI (HT29 colon): > 100 µM
- TGI (KM12 colon): > 100 µM
- TGI (HCT-116 colon): > 100 µM
- TGI (OVCAR-8 ovarian): > 100 µM
- TGI (MDA-MB-435): > 100 µM
- TGI (COLO 205 colon): > 100 µM

Structure (SMILES): CCC(=O)COc1ccc(NC(NC(=O)C(C(F)(F)F)C(F)(F)F)(C(F)(F)F)C(F)(F)F)cc1
- TGI (NCI-H460 lung): > 100 µM
- TGI (NCI-H23 lung): > 100 µM
- TGI (M14 melanoma): > 100 µM
- TGI (TK-10 renal): > 100 µM
- TGI (CCRF-CEM leukemia): 61.8 µM
- TGI (RXF 393 renal): 48.7 µM
- TGI (OVCAR-4 ovarian): > 100 µM
- TGI (IGROV1 ovarian): 44.9 µM
- TGI (PC-3 prostate): > 100 µM
- TGI (MCF7 breast): > 100 µM
- TGI (SK-MEL-5 melanoma): > 100 µM
- TGI (HCC-2998 colon): > 100 µM
- TGI (SF-539 CNS): 55.2 µM
- TGI (UACC-257 melanoma): > 100 µM
- TGI (HOP-92 NSCLC): > 100 µM
- TGI (HOP-62 NSCLC): > 100 µM
- TGI (UO-31 renal): > 100 µM
- TGI (SF-295 CNS): > 100 µM
- TGI (ACHN renal): > 100 µM
- TGI (SK-OV-3 ovarian): > 100 µM
- TGI (SK-MEL-2 melanoma): 95.5 µM
- TGI (SNB-75 CNS): 75.3 µM
- TGI (SF-268 CNS): 78.1 µM
- TGI (MALME-3M melanoma): 77.7 µM
- TGI (DU-145 prostate): > 100 µM
- TGI (CAKI-1 renal): 94.1 µM
- TGI (EKVX NSCLC): > 100 µM
- TGI (MDA-N): 83.9 µM
- TGI (MDA-MB-231 breast): 54.2 µM
- TGI (NCI-H226 lung): 47.6 µM
- TGI (SK-MEL-28 melanoma): > 100 µM
- TGI (SW-620 colon): > 100 µM
- TGI (HS 578T breast): > 100 µM
- TGI (NCI/ADR-RES ovarian): 42.7 µM
- TGI (786-0 renal): 61.7 µM
- TGI (A498 renal): > 100 µM
- TGI (U251 CNS): > 100 µM
- TGI (MOLT-4 leukemia): 44.8 µM
- TGI (HCT-15 colon): > 100 µM
- TGI (SNB-19 CNS): > 100 µM
- TGI (SR leukemia): 37.1 µM
- TGI (A549 NSCLC): > 100 µM
- TGI (T-47D breast): 68.8 µM
- TGI (LOX IMVI melanoma): 74.1 µM
- TGI (NCI-H522 lung): 35.5 µM
- TGI (OVCAR-5 ovarian): > 100 µM
- TGI (OVCAR-3 ovarian): > 100 µM
- TGI (RPMI-8226 leukemia): 52.8 µM
- TGI (HL-60(TB) leukemia): 56.1 µM
- TGI (HT29 colon): 70.3 µM
- TGI (KM12 colon): > 100 µM
- TGI (HCT-116 colon): 67.6 µM
- TGI (OVCAR-8 ovarian): 62.8 µM
- TGI (MDA-MB-435): > 100 µM
- TGI (COLO 205 colon): 43.7 µM
